Results on 13 compounds are retold here after patent US6444694B1, “Styryl benzimidazole derivatives” (Wyeth, priority 1995, dated 2002).

Structures can show the parent of a compound that is named as a salt. Where two headings read alike, the source gives them in different places.

Data set [1] deals with isolated porcine aortic smooth muscle cells. Nature of the data set: Porcine aortic smooth muscle cell antiproliferation (3H thymidine incorporation). The format is cell-based. The settings on record: 24-36 hours. Here is the method: The ability of the compounds of the present invention to inhibit smooth muscle cell proliferation was established using isolated porcine aortic smooth muscle cells in a modification of the procedure of Castellot et al. J. Biol. Chem 257(19) 11256 (1982), as follows:
Fresh porcine aortas, scrupulously cleansed of fatty tissue, are rinsed in sterile phosphate-buffered saline with 2% antibiotic-antimycotic (100×) liquid (10,000 units of penicillin (base), 10,000 μg of streptomycin (base), and 25 μg of amphotericin B/mL utilizing penicillin G (sodium salt), streptomycin sulfate, and amphotericin B as Fungizone® in 0.85% saline, available from Gibco Laboratories, Grand Island Biological Co., Grand Island, N.Y.). The tissue is then digested in 10-15 mL of an enzyme solution containing collagenase type I, 165 U/mL; elastase type III, 15 U/mL; BSA, 2 mg/mL; and soybean trypsin inhibitor, 0.375 mg/mL, followed by incubation at 37° C. under 5% CO2 atmosphere for 10 to 15 minutes. After this treatment, the outer surface adventitia is removed by peeling with a forceps. The aorta is then longitudinally cut and laid open and the endothelial layer is removed by scraping.
The medial layer of cells is rinsed in the enzyme solution, and placed in a new 100 mm dish with 10 mL of enzyme solution. The medial layer of cells is minced using a fine pair of scissors and digested for 2-3 hours at 37° C. in 30 mL of fresh enzyme solution. After digestion, the medial tissue is homogenized using a sterile Pasteur pipette with a fire polished tip or an Eppendorf pipetter with a 200-1000 μL sterile pipette tip. The suspension is then centrifuged for 10 minutes at 8000 rpm and the pellet is suspended in 4-6 mL of fresh enzyme solution and plated onto 4-6 100 mm flasks with vented caps. The cells are then allowed to grow to confluence and split using 0.25% trypsin. The cells are evaluated for purity and overall quality using antibody to SMC actin.
The cells are assayed in early passage (generally passage 3-7) at sub-confluent conditions. Cultures are grown in 16 mm (24 well) multi-well culture dishes in media 199 supplemented with 10% fetal bovine serum and 2% antibiotic/antimycotic. At subconfluence, the cells are placed in a defined serum free, lymphocyte medium (AIM-V; Gibco) for 24-48 hours prior to initiating the experimental protocol.
The standard test procedure is initiated by addition of the test compound, ^3H thymidine and serum or a specific growth factor to the serum deprived synchronized cells. Growth factor and serum stimulations are optimized for each cell type. The test compounds are added to each well at 50 fold dilution (20 μL/well) and the plates are incubated for 24-36 hours at 37° C. in 5% CO2 atmosphere. Test compounds are dissolved in 50% ethanol and assayed at 1, 10, and 100 μM. As a control, RG 50872 (Bilder, G. A.; et al., Am. J. Cell Physiol., 1991; 260: C721) is routinely assayed under the conditions of each cell preparation at a concentration of 5 μM.
At the completion of the experiment, the plates are placed on ice, washed three times with ice cold PBS and incubated in ice cold 10% trichloroacetic acid (TCA) for 30 minutes to remove acid soluble proteins. Each solution is transferred to a scintillation vial containing 0.4N HCl (500 μL/vial to neutralize NaOH) and each well is rinsed two times with water […].
Data is quantitated by subjecting the vials to a scintillation counter, in triplicate, for both control and experimental samples. Control (100%) data is obtained from maximally stimulated cells, as the result of growth factor or serum stimulation. Experimental data is obtained from cells maximally stimulated with growth factor or serum and treated with a test compound. (The platelet-derived growth factor used in the assay was human recombinant PDGF-AB purchased from Upstate Biotechnology Inc., Lake Placid, N.Y.). Data is expressed as a percent of control from which IC50s are determined.

The nature of data set [2]: Cytotoxicity, commercial modification of the MTT assay. The arrangement: dose or concentration left out as unconfirmed. The format is cell-based, porcine. The settings on record: pig. As to the method:
To distinguish cytotoxicity from the ability of a compound to prevent proliferation, the test compounds were examined using a commercial modification of the MTT assay. Briefly, cells were grown in 24 well plates to 70-80% confluency. The cells were serum deprived for 24-48 hours prior to initiation of the experimental protocol. To insure that the MTT assay monitored toxicity rather than proliferation, the cells were incubated with […] test compound in fresh medium without serum for 24 hours at 37° C. in a humidified CO2 incubator. Upon completion of the compound treatment, MTT indicator dye was added for 4 hours a 37° C. Cells were then solubilized and aliquots from each will were transferred to a 96-well plate for analysis. Absorbance at 570 nm wavelength with a reference wavelength of 630 nm was recorded using an ELISA plate reader. Results are reported as percent viable using no drug (100% viable) and pre-solubilization (0% viable) standards.

The mark [3] stands for this setting: Sus scrofa, serum-stimulated, serum deprived synchronized cells, read-out: Porcine Smooth Muscle Cell Antiproliferation IC50 or % Inhibition at x Concentration, Serum.
Setting [4] is: Sus scrofa, stimulated with human recombinant PDGF-AB, read-out: Porcine Smooth Muscle Cell Antiproliferation IC50 or % Inhibition at x Concentration, PDGF.
[5] abbreviates: serum-stimulated, serum deprived synchronized cells, read-out: Porcine Smooth Muscle Cell Antiproliferation IC50 or % Inhibition at x Concentration, Serum.
Setting [6] is: stimulated with human recombinant PDGF-AB, read-out: Porcine Smooth Muscle Cell Antiproliferation IC50 or % Inhibition at x Concentration, PDGF.

`COc1ccc2[nH]c(C=Cc3ccc(OC)c(OC)c3)nc2c1` (as salt: hydrochloride) (hydrate or solvate) [Example 2, 2-[2-(3,4-Dimethoxyphenyl)-vinyl]-5-methoxy-1H-benzoimidazole] displayed a melting point of 246 to 249 °C.
Regarding `COC(=O)c1ccc(Cn2c(C=Cc3ccc(OC)c(OC)c3)nc3c(OC)c(C)c(C)c(OC)c32)cc1` (hydrate or solvate) [Example 8, 4-{2-[2-(3,4-Dimethoxyphenyl)-vinyl]-4,7-dimethoxy-5,6-dimethyl-benzoimidazol-1-ylmethyl}-benzoic acid methyl ester], the melting point was 111 to 114 °C.
For the compound `COc1ccc(/C=C/c2nc3ccccc3[nH]2)cc1OC` [Example 1, (E)-2-[2-(3,4-Dimethoxyphenyl)-vinyl]-1H-benzoimidazole], the values for the IC50 in data set [1] (setting [3]) and in data set [1] (setting [4]) were 5.91 µM and 4.1 µM, respectively. Besides, the viability at 24 h in data set [2] turned out to be 100%.
Regarding `COc1ccc2[nH]c(C=Cc3ccc(OC)c(OC)c3)nc2c1` [Example 2, 2-[2-(3,4-Dimethoxyphenyl)-vinyl]-5-methoxy-1H-benzoimidazole], the figures for the IC50 in data set [1] (setting [3]) and in data set [1] (setting [4]) were 11.4 µM and 3.48 µM, respectively. For the same compound, the viability at 24 h in data set [2] worked out at 100%.
Consider `COc1ccc(C=Cc2nc3cc(C(=O)c4ccccc4)ccc3[nH]2)cc1OC` [Example 3, {2-[2-(3,4-Dimethoxyphenyl)-vinyl]-1H-benzoinmidazol-5-yl}-phenyl-methanone], for which the values for the IC50 in data set [1] (setting [5]) and in data set [1] (setting [6]) were 7.6 µM and 0.324 to 0.801 µM, respectively.
`COc1ccc(C=Cc2nc3c(OC)c(C)c(C)c(OC)c3[nH]2)cc1OC` [Example 4, 2-[2-(3,4-Dimethoxyphenyl)-vinyl]-4,7-dimethoxy-5,6-dimethyl-1H-benzoimidazole] yielded a melting point of 116 to 119 °C. In data set [1] (setting [3]), the IC50 is 1.28 µM. In addition, the IC50 in data set [1] (setting [4]) is 1.5 µM. Also, the viability at 24 h in data set [2] came out at 100%.
On to `COC(=O)c1ccc2[nH]c(/C=C/c3ccc(OC)c(OC)c3)nc2c1` [Example 5, (E)-2-[2-(3,4-Dimethoxyphenyl)-vinyl]-1H-benzoimidazole-5-carboxylic acid methyl ester], for which the melting point is 185 to 188 °C. Also, in data set [1] (setting [3]), the IC50 came out at 1.2 µM. For the same compound, in data set [1] (setting [4]), the IC50 is 6.12 µM. The compound also came in with a viability at 24 h in data set [2] of 100%.
`COc1ccc(/C=C/c2nc3cc(C(=O)O)ccc3[nH]2)cc1OC` [Example 6, (E)-2-[2-(3,4-Dimethoxyphenyl)-vinyl]-1H-benzoimidazole-5-carboxylic acid]: the IC50 in data set [1] (setting [3]) is 2.26 µM; in data set [1] (setting [4]), 7.49 µM. Moreover, the viability at 24 h in data set [2] was found to be 100%.
Turning to `COc1ccc(/C=C/c2nc3cc([N+](=O)[O-])ccc3[nH]2)cc1OC` [Example 7, (E)-2-[2-(3,4-Dimethoxyphenyl)-vinyl]-5-nitro-1H-benzoimidazole], the melting point was in the range of 223 to 225 °C. Further, the IC50 in data set [1] (setting [3]) lay within 0.567 to 1.9 µM. Besides, the IC50 in data set [1] (setting [4]) was 1.49 µM. In data set [2], this compound had a viability at 24 h of 100%.
Turning to `COC(=O)c1ccc(Cn2c(C=Cc3ccc(OC)c(OC)c3)nc3c(OC)c(C)c(C)c(OC)c32)cc1` [Example 8, 4-{2-[2-(3,4-Dimethoxyphenyl)-vinyl]-4,7-dimethoxy-5,6-dimethyl-benzoimidazol-1-ylmethyl}-benzoic acid methyl ester], the IC50 was 0.915 to 10.2 µM in data set [1] (setting [3]) and 0.622 µM in data set [1] (setting [4]). In data set [2], this compound registered a viability at 24 h of 80%.
For `COc1ccc(C=Cc2nc3c([nH]2)C(=O)C(C)=C(C)C3=O)cc1OC` [Example 9, 2-[2-(3,4-Dimethoxyphenyl)-vinyl]-5,6-dimethyl-1-benzoimidazol-4,7-dione], the IC50 in data set [1] (setting [5]) was found to be 14.5 µM; in data set [1] (setting [6]), 0.858 µM.
Consider `O=[N+]([O-])c1ccc2[nH]c(/C=C/c3ccncc3)nc2c1` [Example 10, (E)-5-Nitro2-(2-pyridin-4-yl-vinyl)-1H-benzoimidazole], for which the figures for the IC50 in data set [1] (setting [3]) and in data set [1] (setting [4]) were 8.36 µM and 0.62 µM, respectively. In addition, the viability at 24 h in data set [2] amounted to 45%.
As for `O=[N+]([O-])c1ccc2[nH]c(/C=C/c3ccoc3)nc2c1` [Example 11, (E)-2-(2-Furan-3-yl-vinyl)-5-nitro-1H-benzoimidazole], the melting point is 230 to 233 °C.
